Values quoted from earlier work in publication PMC4780677 (Annual reports in medicinal chemistry, 2012).

System: mGlu5 receptor
Details: cell lines; mGlu5 receptor ago-PAM vs pure PAM

For O=C(c1ccc(C#Cc2cccc(F)c2)nc1)N1CCC(O)CC1 [VU0361747], the intrinsic agonist activity is listed as “devoid of intrinsic agonist activity”.

In the case of O=C(NC1CCC1)c1ccc(C#Cc2cccc(F)c2)nc1 [VU0360172], the intrinsic agonist activity is given as “maximal intrinsic agonist activity”.
